Measurements from PubChem BioAssay AID248 (DTP/NCI, 2004).
Toxic doses and inconclusive results are not listed. Cut-off read from the data, not from the text of the source: active = T/C of 150% or more; inactive = T/C below 125%.

System: L1210 leukemia ip in BDF1 mice, survival T/C
Experiment: NCI In Vivo Anticancer Drug Screen. Data for tumor model L1210 Leukemia (intraperitoneal) in B6D2F1 (BDF1) mice
Settings: endpoint: mean survival time, higher = longer survival
Method in brief: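 Transplanted-tumor mice were given test agent; controls received vehicle only. Survival readings from the two groups were divided (treated over control).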

[1] = dose: 25.0 mg/kg/injection, schedule: Q01DX009 (ip), vehicle: saline with Tween-80
[2] = dose: 50.0 mg/kg/injection, schedule: Q01DX009 (ip), vehicle: saline with Tween-80
[3] = dose: 100.0 mg/kg/injection, schedule: Q01DX009 (ip), vehicle: saline with Tween-80
[4] = dose: 100.0 mg/kg/injection, schedule: Q04DX003 (ip), vehicle: saline with Tween-80
[5] = dose: 100.0 mg/kg/injection, schedule: Q01DX001 (ip), vehicle: saline
[6] = dose: 200.0 mg/kg/injection, schedule: Q01DX001 (ip), vehicle: saline
[7] = dose: 400.0 mg/kg/injection, schedule: Q01DX001 (ip), vehicle: saline
[8] = dose: 50.0 mg/kg/injection, schedule: Q01DX001 (ip), vehicle: saline
[9] = dose: 100.0 mg/kg/injection, schedule: Q04DX002 (ip), vehicle: saline with Tween-80
[10] = dose: 200.0 mg/kg/injection, schedule: Q04DX002 (ip), vehicle: saline with Tween-80
[11] = dose: 400.0 mg/kg/injection, schedule: Q04DX002 (ip), vehicle: saline with Tween-80
[12] = dose: 100.0 mg/kg/injection, schedule: Q04DX002 (ip), vehicle: Klucel (hydroxypropylcellulose) (HPC)
[13] = dose: 200.0 mg/kg/injection, schedule: Q04DX002 (ip), vehicle: Klucel (hydroxypropylcellulose) (HPC)
[14] = dose: 400.0 mg/kg/injection, schedule: Q04DX002 (ip), vehicle: Klucel (hydroxypropylcellulose) (HPC)
[15] = dose: 100.0 mg/kg/injection, schedule: Q01DX001 (ip), vehicle: saline with Tween-80
[16] = dose: 200.0 mg/kg/injection, schedule: Q01DX001 (ip), vehicle: saline with Tween-80
[17] = dose: 400.0 mg/kg/injection, schedule: Q01DX001 (ip), vehicle: saline with Tween-80
[18] = dose: 100.0 mg/kg/injection, schedule: Q01DX009 (ip), vehicle: saline
[19] = dose: 200.0 mg/kg/injection, schedule: Q01DX009 (ip), vehicle: saline
[20] = dose: 100.0 mg/kg/injection, schedule: Q01DX001 (ip), vehicle: carboxymethylcellulose (CMC)
[21] = dose: 200.0 mg/kg/injection, schedule: Q01DX001 (ip), vehicle: carboxymethylcellulose (CMC)
[22] = dose: 400.0 mg/kg/injection, schedule: Q01DX001 (ip), vehicle: carboxymethylcellulose (CMC)

Measured: T/C

CCCCn1cnc(=S)c2[nH]cnc21
inactive: dose: 50.0 mg/kg/injection, schedule: Q04DX003 (ip), vehicle: Klucel (hydroxypropylcellulose) (HPC) 98 % of control | dose: 100.0 mg/kg/injection, schedule: Q04DX003 (ip), vehicle: Klucel (hydroxypropylcellulose) (HPC) 114 % of control | dose: 133.0 mg/kg/injection, schedule: Q04DX003 (ip), vehicle: Klucel (hydroxypropylcellulose) (HPC) 118 % of control

COc1ccc(C(c2ccc(Cl)cc2)N2CCNCC2)cc1 (centres undefined)
inactive: [1] 98 % of control | [2] 96 % of control | [3] 96 % of control | [4] 102 % of control

COc1cc(NCC(O)C(O)C(O)CO)c([N+](=O)[O-])cc1OC (centres undefined)
inactive: [5] 92 % of control | [6] 99 % of control | [7] 100 % of control

CCC(Br)(CC)C(=O)c1ccc(OCC(=O)O)c(Cl)c1Cl
inactive: [8] 104 % of control | [5] 96 % of control | [6] 102 % of control

C1CCC2OCOCC2C1 (centres undefined)
inactive: [9] 93 % of control | [10] 90 % of control | [11] 93 % of control

O=S1(=O)C2CCCC1C(Cl)CC2 (centres undefined)
inactive: dose: 15.0 mg/kg/injection, schedule: Q01DX001 (ip), vehicle: carboxymethylcellulose (CMC) 100 % of control

CCOC(=O)NC(S(=O)(=O)O)S(=O)(=O)O.[Tl]
inactive: dose: 25.0 mg/kg/injection, schedule: Q01DX001 (ip), vehicle: saline with Tween-80 102 % of control

O=C1C=C2CCCC(=O)C2(Cc2ccccc2)CC1 (centres undefined)
inactive: dose: 100.0 mg/kg/injection, schedule: Q01DX009 (ip), vehicle: alcohol 103 % of control | dose: 200.0 mg/kg/injection, schedule: Q01DX009 (ip), vehicle: alcohol 92 % of control | dose: 400.0 mg/kg/injection, schedule: Q01DX009 (ip), vehicle: alcohol 96 % of control

C/C=C(\C)C(=O)Nc1cccc(O)c1
inactive: [4] 90 % of control | dose: 200.0 mg/kg/injection, schedule: Q04DX003 (ip), vehicle: saline with Tween-80 93 % of control | dose: 400.0 mg/kg/injection, schedule: Q04DX003 (ip), vehicle: saline with Tween-80 90 % of control

O=C1OCCN1/N=C/c1ccc(Cl)cc1
inactive: [1] 102 % of control | dose: 37.5 mg/kg/injection, schedule: Q01DX009 (ip), vehicle: saline with Tween-80 98 % of control | [2] 102 % of control | dose: 75.0 mg/kg/injection, schedule: Q01DX009 (ip), vehicle: saline with Tween-80 93 % of control | [9] 96 % of control | [10] 107 % of control

Cc1cc(Cl)ccc1OCC(=O)NCC(C)O (centres undefined)
inactive: [12] 100 % of control | [13] 98 % of control | [14] 98 % of control

Nc1nc(N)c(-c2ccc(Cl)c(Cl)c2)c(CCc2ccc(NS(=O)(=O)c3cccc(S(=O)(=O)F)c3)cc2)n1
inactive: [15] 98 % of control | [16] 95 % of control | [17] 87 % of control

NC(Cc1cc(Cl)c(O)c(Cl)c1)C(=O)O (centres undefined)
inactive: [18] 103 % of control | dose: 150.0 mg/kg/injection, schedule: Q01DX009 (ip), vehicle: saline 108 % of control | [19] 103 % of control

CCOc1cc(C=Nc2cc(Br)c(O)c(Br)c2)ccc1N(CCCl)CCCl
inactive: dose: 13.3 mg/kg/injection, schedule: Q01DX009 (ip), vehicle: carboxymethylcellulose (CMC) 108 % of control | dose: 20.0 mg/kg/injection, schedule: Q01DX009 (ip), vehicle: carboxymethylcellulose (CMC) 100 % of control | dose: 30.0 mg/kg/injection, schedule: Q01DX009 (ip), vehicle: carboxymethylcellulose (CMC) 97 % of control | dose: 44.0 mg/kg/injection, schedule: Q01DX001 (ip), vehicle: carboxymethylcellulose (CMC) 123 % of control | [20] 123 % of control | dose: 150.0 mg/kg/injection, schedule: Q01DX001 (ip), vehicle: carboxymethylcellulose (CMC) 122 % of control

CN(C)C(=O)c1cccc(NC(=O)NCc2cccc(N3C(N)=NC(N)=NC3(C)C)c2)c1
inactive: [3] 91 % of control | [4] 97 % of control

CCC1OC(C)CC(C)(C)O1 (centres undefined)
inactive: dose: 50.0 mg/kg/injection, schedule: Q01DX009 (ip), vehicle: saline 96 % of control | [18] 101 % of control | [9] 93 % of control | dose: 100.0 mg/kg/injection, schedule: Q04DX003 (ip), vehicle: acetone 118 % of control | [19] 96 % of control | [10] 97 % of control | dose: 200.0 mg/kg/injection, schedule: Q04DX003 (ip), vehicle: acetone 120 % of control | [11] 101 % of control | dose: 400.0 mg/kg/injection, schedule: Q04DX003 (ip), vehicle: acetone 101 % of control

Cc1cn(C2CC(O)C(CO)O2)c(=O)n(CCCc2ccccc2)c1=O (centres undefined)
inactive: dose: 50.0 mg/kg/injection, schedule: Q01DX001 (ip), vehicle: carboxymethylcellulose (CMC) 93 % of control | [20] 90 % of control | [21] 87 % of control | [22] 90 % of control

CCOc1ccc(C2(C)CC(=O)NN2)c(O)c1 (centres undefined)
inactive: [15] 101 % of control | [16] 103 % of control | [17] 98 % of control

OCC(O)C(O)C(O)C(SCc1ccccc1)SCc1ccccc1 (centres undefined)
inactive: dose: 75.0 mg/kg/injection, schedule: Q04DX002 (ip), vehicle: saline with Tween-80 93 % of control | dose: 150.0 mg/kg/injection, schedule: Q04DX002 (ip), vehicle: saline with Tween-80 117 % of control | dose: 300.0 mg/kg/injection, schedule: Q04DX002 (ip), vehicle: saline with Tween-80 101 % of control

Cc1cccc2nc(-c3ccccc3)ccc12
inactive: dose: 6.0 mg/kg/injection, schedule: Q01DX009 (ip), vehicle: other 100 % of control | dose: 12.0 mg/kg/injection, schedule: Q01DX009 (ip), vehicle: other 92 % of control | dose: 12.0 mg/kg/injection, schedule: Q04DX003 (ip), vehicle: saline 92 % of control | dose: 25.0 mg/kg/injection, schedule: Q01DX009 (ip), vehicle: other 94 % of control | dose: 25.0 mg/kg/injection, schedule: Q04DX003 (ip), vehicle: saline 98 % of control

CC1CC(C)(C)[N+](C)=C(CC(C)(C)O)O1 (centres undefined)
inactive: dose: 100.0 mg/kg/injection, schedule: Q04DX003 (ip), vehicle: saline 113 % of control

O=C(NC1CCCCC1)C(=O)NC1CCCCC1
inactive: [8] 102 % of control | [5] 98 % of control | [12] 89 % of control | [6] 98 % of control | [13] 95 % of control | [7] 96 % of control | [14] 103 % of control

NC(=S)N/N=C/c1ccc(-c2ccccc2)cc1
inactive: [1] 103 % of control | [2] 113 % of control | [20] 97 % of control | [3] 100 % of control | [21] 103 % of control | [22] 101 % of control

COC(=O)C1(C)CCCC2(C)c3cc(OC)c4c(c3CCC12)C(=O)CCC4 (centres undefined)
inactive: dose: 100.0 mg/kg/injection, schedule: Q01DX001 (sc), vehicle: steriod suspending solution 93 % of control | dose: 200.0 mg/kg/injection, schedule: Q01DX001 (sc), vehicle: steriod suspending solution 90 % of control | dose: 400.0 mg/kg/injection, schedule: Q01DX001 (sc), vehicle: steriod suspending solution 98 % of control

Nc1nc(N)c(CCCOc2ccc(C(=O)O)cc2)c(N)n1
inactive: dose: 12.5 mg/kg/injection, schedule: Q01DX009 (ip), vehicle: Klucel (hydroxypropylcellulose) (HPC) 95 % of control | dose: 25.0 mg/kg/injection, schedule: Q01DX009 (ip), vehicle: Klucel (hydroxypropylcellulose) (HPC) 100 % of control | dose: 50.0 mg/kg/injection, schedule: Q01DX009 (ip), vehicle: Klucel (hydroxypropylcellulose) (HPC) 93 % of control

CCP(=S)(CP(=S)(c1ccccc1)c1ccccc1)c1ccccc1 (centres undefined)
inactive: dose: 100.0 mg/kg/injection, schedule: Q04DX002 (sc), vehicle: olive oil, sesame oil, peanut oil 104 % of control | dose: 200.0 mg/kg/injection, schedule: Q04DX002 (sc), vehicle: olive oil, sesame oil, peanut oil 104 % of control | dose: 400.0 mg/kg/injection, schedule: Q04DX002 (sc), vehicle: olive oil, sesame oil, peanut oil 104 % of control
